Laboratory results as given in PMC8388760, “Novel Bifunctional Acylase from Actinoplanes utahensis: A Versatile Enzyme to Synthesize Antimicrobial Compounds and Use in Quorum Quenching Processes” (Antibiotics, 2021).

Test system: T1, AuAHLA
T1 construct: gene ahla; full ORF of 808 residues expressed untagged in Rhodococcus sp; T104, secreted; signal peptide of 34-35 aa removed
Test: hydrolysis, o-phthalaldehyde fluorometric assay of released primary amine
Assay type: biochemical, Actinoplanes utahensis
Settings: 0.2 M potassium phosphate pH 8.0, 45 °C
Source text: hydrolysis, o-phthalaldehyde fluorometric assay of released primary amine on AuAHLA

Row | Compound | Km (20% (v/v) DMSO) [µM] | Km [µM]
1 | CCCCCC(=O)CC(=O)N[C@H]1CCOC1=O [3-oxo-C8-HSL, N-(3-oxooctanoyl)-L-homoserine lactone] | 1040 ± 420 | –
2 | CCCCCCCC(=O)CC(=O)N[C@H]1CCOC1=O [3-oxo-C10-HSL, N-(3-oxodecanoyl)-L-homoserine lactone] | 238 ± 86 | –
3 | CCCCCCCCCC(=O)CC(=O)N[C@H]1CCOC1=O [3-oxo-C12-HSL, N-(3-oxododecanoyl)-L-homoserine lactone] | 92 ± 21 | –
4 | CCCCCC(=O)N[C@H]1CCOC1=O [C6-HSL, N-hexanoyl-L-homoserine lactone] | 2250 ± 500 | –
5 | CCCCCCCC(=O)N[C@H]1CCOC1=O [C8-HSL, N-octanoyl-L-homoserine lactone] | 860 ± 150 | –
6 | CCCCCCCCCC(=O)N[C@H]1CCOC1=O [C10-HSL, N-decanoyl-L-homoserine lactone] | 84 ± 21 | –
7 | CCCCCCCCCCCC(=O)N[C@H]1CCOC1=O [C12-HSL, N-dodecanoyl-L-homoserine lactone] | 8 ± 2 | –
8 | CC1(C)S[C@@H]2[C@H](NC(=O)Cc3ccccc3)C(=O)N2[C@H]1C(=O)O [Penicillin G] | – | 1210 ± 300
9 | CCCCCCCC(=O)N[C@@H]1C(=O)N2[C@@H]1SC(C)(C)[C@@H]2C(=O)O [Penicillin K] | – | 675 ± 190
10 | CC1(C)S[C@@H]2[C@H](NC(=O)COc3ccccc3)C(=O)N2[C@H]1C(=O)O [Penicillin V] | – | 472 ± 50
11 | CCCCCC(=O)N[C@@H]1C(=O)N2[C@@H]1SC(C)(C)[C@@H]2C(=O)O [Penicillin dihidroF] | – | 199 ± 20
